Legend:
Type in all cases: biochemical, Medicago truncatula
MtHCT1 [1] = test system: T1, MtHCT1; experiment: HPLC product assay, forward HCT reaction; conditions: 500 µM shikimic acid, 100 mM sodium phosphate pH 7.5, 500 µM DTT; kcat apparent
T1 construct: gene HCT1
Description: HPLC product assay, forward HCT reaction on MtHCT1

MtHCT2 [2] = test system: T2, MtHCT2; experiment: HPLC product assay, forward HCT reaction; conditions: 500 µM shikimic acid, 100 mM sodium phosphate pH 7.5, 500 µM DTT; kcat apparent
T2 construct: gene HCT2
Description: HPLC product assay, forward HCT reaction on MtHCT2

MtHCT2 [3] = test system: T2, MtHCT2; experiment: HPLC product assay, reverse HCT reaction; conditions: 500 µM CoA, 100 mM sodium phosphate pH 7.5, 500 µM DTT; kcat apparent; substrate tested 20 to 400 µM
Description: HPLC product assay, reverse HCT reaction on MtHCT2

MtHCT1 [4] = test system: T1, MtHCT1; experiment: HPLC product assay, reverse HCT reaction; conditions: 500 µM CoA, 100 mM sodium phosphate pH 7.5, 500 µM DTT; kcat apparent; substrate tested 20 to 400 µM
Description: HPLC product assay, reverse HCT reaction on MtHCT1

| SMILES | Km (MtHCT1 [1]) | Km (MtHCT2 [2]) | Km (MtHCT2 [3]) | Km (MtHCT1 [4]) |
| --- | --- | --- | --- | --- |
| CC(C)(COP(=O)(O)OP(=O)(O)OC[C@H]1O[C@@H](n2cnc3c(N)ncnc32)[C@H](O)[C@@H]1OP(=O)(O)O)[C@@H](O)C(=O)NCCC(=O)NCCSC(=O)/C=C/c1ccc(O)cc1 [4-coumaroyl CoA] | 40.6 µM | 44.3 µM |  |  |
| O=C(/C=C/c1ccc(O)c(O)c1)O[C@@H]1CC(C(=O)O)=C[C@@H](O)[C@H]1O [caffeoyl shikimate] |  |  | 139 µM | 148 µM |

From paper PMC7913460, “Targeting hydroxycinnamoyl CoA: shikimate hydroxycinnamoyl transferase for lignin modification in Brachypodium distachyon” (Biotechnology for Biofuels, 2021)
